According to US20230085307A1, “PYRIDAZINONE COMPOUND AND HERBICIDE” (NISSAN CHEMICAL CORPORATION, priority 2019, published 2023):

How the values were obtained:
late watergrass [1] = assay: Test Example 1: herbicidal activity, application before weed generation under submerged conditions (Table 16, symbol A); assay type: in vivo, late watergrass (Echinochloa oryzicola); settings: 320 g/ha applied herbicide
How it was run: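 Emulsion formulation, water-diluted to set dose, was put onto the flooded surface (4 cm depth, alluvial soil) the same day weeds were sown and 2.5-leaf rice transplanted. After 3 weeks at 25-30 °C under glass, each species was rated 0 (≤5% kill) to 5 (≥90% kill).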

late watergrass [2] = assay: Test Example 2: herbicidal activity, application during weed generation under submerged conditions (Table 17, symbol A); assay type: in vivo, late watergrass (Echinochloa oryzicola); settings: AAH 320 g/ha; application during weed generation, submerged conditions
How it was run: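 Wagner pot, alluvial soil, 4 cm flood; mixed sowing of all species; greenhouse 25° C.–30° C. Emulsifiable formulation, water-diluted to predetermined dose, applied to paddy water at 1–2 leaf stage. Effect rated at 3 wk using the earlier test's scoring criteria.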

barnyard grass = assay: Test Example 3: herbicidal effect by foliage application, Wagner pot (Table 18, symbol H); assay type: in vivo, barnyard grass (Echinochloa crus-galli); settings: 320 g/ha
How it was run: (§1)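 Plants were sown in alluvial soil held under 0.1–0.5 cm standing water and grown 14 days in a greenhouse at 25–30 °C. An emulsifiable formulation, water-diluted to the set dose, was then sprayed onto the foliage, and effects were scored three weeks later using previously defined criteria.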

Chinese sprangletop = assay: Test Example 3: herbicidal effect by foliage application, Wagner pot (Table 18, symbol D); assay type: in vivo, chinese sprangletop (Leptochloa chinensis); settings: 320 g/ha
How it was run: as §1

southern crabgrass = assay: Test Example 4: herbicidal effect by soil treatment (Table 19, symbol F); assay type: in vivo, southern crabgrass (Digitaria ciliaris)
How it was run: (§2)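 Pre-emergence style soil spray: seeds under ~1.5 cm sterilized diluvial soil received a uniform coat of emulsion diluted to the predetermined herbicide amount. Greenhouse 25–30° C; readout at week three on previously defined criteria.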

blackgrass [3] = assay: Test Example 4: herbicidal effect by soil treatment (Table 19, symbol J); assay type: in vivo, blackgrass (Alopecurus myosuroides)
How it was run: as §2

Italian ryegrass [4] = assay: Test Example 4: herbicidal effect by soil treatment (Table 19, symbol K); assay type: in vivo, Italian ryegrass (Lolium multiflorum)
How it was run: as §2

windgrass = assay: Test Example 4: herbicidal effect by soil treatment (Table 19, symbol L); assay type: in vivo, windgrass (Apera spica-venti)
How it was run: as §2

lambsquarters [5] = assay: Test Example 4: herbicidal effect by soil treatment (Table 19, symbol O); assay type: in vivo, lambsquarters (Chenopodium album)
How it was run: as §2

persian speedwell = assay: Test Example 4: herbicidal effect by soil treatment (Table 19, symbol R); assay type: in vivo, Persian speedwell (Veronica persica)
How it was run: as §2

blackgrass [6] = assay: Test Example 5: herbicidal effect by foliage application, plastic box (Table 20, symbol J); assay type: in vivo, blackgrass (Alopecurus myosuroides); settings: foliage application; for effect on blackgrass (J): 320 g/ha, 3 weeks after application
How it was run: (§3)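 Plants were sown into sterilized diluvial soil under about 1.5 cm cover and kept in a greenhouse at 25° C. to 30° C. Fourteen days on, foliage received an even spray of the diluted emulsion. Herbicidal or crop effect was judged three weeks afterwards.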

Italian ryegrass [7] = assay: Test Example 5: herbicidal effect by foliage application, plastic box (Table 20, symbol K); assay type: in vivo, Italian ryegrass (Lolium multiflorum); settings: foliage application; for effect on Italian ryegrass (K): 320 g/ha, 3 weeks after application
How it was run: as §3

velvetleaf [8] = assay: Test Example 5: herbicidal effect by foliage application, plastic box (Table 20, symbol M); assay type: in vivo, velvetleaf (Abutilon theophrasti); settings: foliage application; for effect on velvetleaf (M): 320 g/ha, 3 weeks after application
How it was run: as §3

redroot pigweed = assay: Test Example 5: herbicidal effect by foliage application, plastic box (Table 20, symbol N); assay type: in vivo, redroot pigweed (Amaranthus retroflexus); settings: foliage application, AAH 320 g/ha, three weeks after application
How it was run: as §3

lambsquarters [9] = assay: Test Example 5: herbicidal effect by foliage application, plastic box (Table 20, symbol O); assay type: in vivo, lambsquarters (Chenopodium album); settings: foliage application; for effect on lambsquarters (O): 320 g/ha, 3 weeks after application
How it was run: as §3

velvetleaf [10] = assay: Test Example 4: herbicidal effect by soil treatment (Table 19, symbol M); assay type: in vivo, velvetleaf (Abutilon theophrasti); settings: 320 g/ha
How it was run: as §2

[11] = amount of applied herbicide 320 g/ha
[12] = AAH 320 g/ha, three weeks after application

SMILES	Herbicidal effect on A: late watergrass (grade 0-5) (late watergrass [1])	herbicidal effect rating, A: late watergrass (late watergrass [2])	herbicidal effect on H (barnyard grass), rating 0-5 (barnyard grass)	herbicidal effect on D (Chinese sprangletop), rating 0-5 (Chinese sprangletop)	herbicidal effect rating, F: southern crabgrass (southern crabgrass; 320 g/ha)	herbicidal effect rating, J: blackgrass (blackgrass [3]; 320 g/ha)	herbicidal effect rating, K: Italian ryegrass (Italian ryegrass [4]; 320 g/ha)	herbicidal effect rating, L: windgrass (windgrass; 320 g/ha)	herbicidal effect rating, M: velvetleaf (velvetleaf [10])	herbicidal effect rating, O: lambsquarters (lambsquarters [5]; 320 g/ha)	herbicidal effect rating, R: persian speedwell (persian speedwell; 320 g/ha)	effect on blackgrass (J) (blackgrass [6])	effect on Italian ryegrass (K) (Italian ryegrass [7])	effect on velvetleaf (M) (velvetleaf [8])	effect on lambsquarters (O) (lambsquarters [9])	also measured
Cc1nn(C)c(=O)c(-c2c(-c3cnc4ccccc4c3)sc3ccccc23)c1O [1-108]	3 (Herbicidal rate of 40% or more and less than 70%)	0 (Herbicidal rate of 5% or less (almost no effect))	0 (Herbicidal rate of 5% or less (almost no effect))	3 (Herbicidal rate of 40% or more and less than 70%)												herbicidal effect rating, F: southern crabgrass (southern crabgrass; [11]): 0 (Herbicidal rate of 5% or less (almost no effect)); herbicidal effect rating, J: blackgrass (blackgrass [3]; [11]): 0 (Herbicidal rate of 5% or less (almost no effect)); herbicidal effect rating, K: Italian ryegrass (Italian ryegrass [4]; [11]): 0 (Herbicidal rate of 5% or less (almost no effect)); herbicidal effect rating, L: windgrass (windgrass; [11]): 0 (Herbicidal rate of 5% or less (almost no effect)); herbicidal effect rating, O: lambsquarters (lambsquarters [5]; [11]): 3 (Herbicidal rate of 40% or more and less than 70%); herbicidal effect rating, R: persian speedwell (persian speedwell; [11]): 0 (Herbicidal rate of 5% or less (almost no effect)); J: blackgrass, herbicidal effect (blackgrass [6]; [12]): 0 (Herbicidal rate of 5% or less (almost no effect)); K: Italian ryegrass, herbicidal effect (Italian ryegrass [7]; [12]): 0 (Herbicidal rate of 5% or less (almost no effect)); M: velvetleaf, herbicidal effect (velvetleaf [8]; [12]): 1 (Herbicidal rate of 5% or more and less than 20%); N: redroot pigweed, herbicidal effect (redroot pigweed): 0 (Herbicidal rate of 5% or less (almost no effect)); O: lambsquarters, herbicidal effect (lambsquarters [9]; [12]): 2 (Herbicidal rate of 20% or more and less than 40%)
Cc1nn(C)c(=O)c(-c2c(-c3ccc(OC(C)C)cc3)sc3ccc(F)cc23)c1O [2-034]	3 (Herbicidal rate of 40% or more and less than 70%)	1 (Herbicidal rate of 5% or more and less than 20%)	5 (Herbicidal rate of 90% or more (almost completely withered))	0 (Herbicidal rate of 5% or less (almost no effect))	5 (Herbicidal rate of 90% or more (almost completely withered))	1 (Herbicidal rate of 5% or more and less than 20%)	1 (Herbicidal rate of 5% or more and less than 20%)	0 (Herbicidal rate of 5% or less (almost no effect))	4 (Herbicidal rate of 70% or more and less than 90%)	5 (Herbicidal rate of 90% or more (almost completely withered))	4 (Herbicidal rate of 70% or more and less than 90%)	5 (Herbicidal rate of 90% or more (almost completely withered))	5 (Herbicidal rate of 90% or more (almost completely withered))	5 (Herbicidal rate of 90% or more (almost completely withered))	5 (Herbicidal rate of 90% or more (almost completely withered))	
CCCCOc1ccc(-c2sc3ccc(F)cc3c2-c2c(O)c(C)nn(C)c2=O)cc1 [2-036]	3 (Herbicidal rate of 40% or more and less than 70%)	0 (Herbicidal rate of 5% or less (almost no effect))	5 (Herbicidal rate of 90% or more (almost completely withered))	3 (Herbicidal rate of 40% or more and less than 70%)	2 (Herbicidal rate of 20% or more and less than 40%)	0 (Herbicidal rate of 5% or less (almost no effect))	0 (Herbicidal rate of 5% or less (almost no effect))	0 (Herbicidal rate of 5% or less (almost no effect))	4 (Herbicidal rate of 70% or more and less than 90%)	5 (Herbicidal rate of 90% or more (almost completely withered))	4 (Herbicidal rate of 70% or more and less than 90%)	4 (Herbicidal rate of 70% or more and less than 90%)	3 (Herbicidal rate of 40% or more and less than 70%)	5 (Herbicidal rate of 90% or more (almost completely withered))	5 (Herbicidal rate of 90% or more (almost completely withered))	
CCCC(=O)Oc1c(C)nn(C)c(=O)c1-c1c(-c2ccc(OC(F)(F)F)cc2)sc2ccc(F)cc12 [2-046]	4 (Herbicidal rate of 70% or more and less than 90%)	1 (Herbicidal rate of 5% or more and less than 20%)	5 (Herbicidal rate of 90% or more (almost completely withered))	3 (Herbicidal rate of 40% or more and less than 70%)	2 (Herbicidal rate of 20% or more and less than 40%)	0 (Herbicidal rate of 5% or less (almost no effect))	3 (Herbicidal rate of 40% or more and less than 70%)	0 (Herbicidal rate of 5% or less (almost no effect))	3 (Herbicidal rate of 40% or more and less than 70%)	5 (Herbicidal rate of 90% or more (almost completely withered))	5 (Herbicidal rate of 90% or more (almost completely withered))	0 (Herbicidal rate of 5% or less (almost no effect))	4 (Herbicidal rate of 70% or more and less than 90%)	5 (Herbicidal rate of 90% or more (almost completely withered))	5 (Herbicidal rate of 90% or more (almost completely withered))	
Cc1nn(C)c(=O)c(-c2c(-c3ccc(OCCF)cc3)sc3ccc(F)cc23)c1O [2-047]	3 (Herbicidal rate of 40% or more and less than 70%)	0 (Herbicidal rate of 5% or less (almost no effect))	5 (Herbicidal rate of 90% or more (almost completely withered))	4 (Herbicidal rate of 70% or more and less than 90%)	5 (Herbicidal rate of 90% or more (almost completely withered))	0 (Herbicidal rate of 5% or less (almost no effect))	1 (Herbicidal rate of 5% or more and less than 20%)	0 (Herbicidal rate of 5% or less (almost no effect))	5 (Herbicidal rate of 90% or more (almost completely withered))	5 (Herbicidal rate of 90% or more (almost completely withered))	5 (Herbicidal rate of 90% or more (almost completely withered))	4 (Herbicidal rate of 70% or more and less than 90%)	4 (Herbicidal rate of 70% or more and less than 90%)	5 (Herbicidal rate of 90% or more (almost completely withered))	4 (Herbicidal rate of 70% or more and less than 90%)	
